Experimental data published in patent publication US20060134119A1, “Drugs containing galectin 9” (priority 2003, published 2006).

Columns and labels:
MM-RU = experiment: Induction of cell aggregation in MM-RU; format: cell-based, human; details: for aggregation: FIG. 14
Description: Recombinant galectin-9 prepared via gene transfer into E. coli was added to MM-RU exogenously, and the efficacy of galectin-9 was then examined. As a result, galectin-9 induced aggregation of MM-RU at the concentration of 0.1 μM or higher. In addition, the galectin-9 efficacy was concentration-dependent, and significant between 0.3-1.0 μM.

Jurkat = experiment: Apoptosis analysis by PI method in Jurkat cells; format: cell-based
Description: (§1) MOLT-4 (T cell), Jurkat (T cell), BALL-1 (B cell), THP-1 (acute monocytic leukemia derived cell), and HL60 (acute promyelotic leukemia derived cell) cells were obtained from American Type Culture Collection (ATCC). All the cell lines were maintained in an RPMI-1640 medium (Sigma, St. Louis, US) supplemented with 10% FCS in 5% Co2 at 37° C. Lactose (30 mM) was added to the culture medium to inhibit Gal-9 activity. The same concentration of sucrose was used as a control.
(§2) Cells that underwent apoptosis induction were centrifuged at 4° C. for 5 min at 1,000 rpm, and the cell pellet was resuspended in PBS (300 μL), and adjusted to a final concentration of 70% by gradually adding 100% cold ethanol (700 μL) to the suspended cells with vortexing. […] Stained cells were analyzed by flow cytometry (Sandstrom, K. et al., J Immunol Methods, 240: 55 (2000) and Zhang L. et al., Cancer Lett, 142: 129 (1999)) after removing aggregated cells through a nylon mesh and increasing the cell volume with PBS. […]
(§3) Apoptotic activity was measured by the PI method. […] Subsequently, incubation with PI leads to a reduction in the fluorescence intensity of apoptotic cells. Apoptosis was examined by the percentage of the cells wherein their fluorescence intensity was reduced. […]

THP-1 = experiment: Apoptosis analysis by PI method in THP-1 cells; format: cell-based
Description: as §1, §2, §3

CD4+ T cells = experiment: Apoptosis induction in peripheral blood CD4+ T cells, resting or anti-CD3 Ab-activated; format: cell-based, human; details: galectin (+), 1 μM rGal-9
Description: To prepare a well plate coated with anti-CD3 Ab, 24 well palates were incubated with TBS solution (pH 8.0) containing 3 μg/mL anti-CD3 Ab (Inmunotech, Marseille, France) per well at 4° C. overnight, and each well was washed with PBS after removing anti-CD3 Ab solution.
Mononuclear leukocyte fractions were isolated from heparinized blood using HISTOPAQUE (Registered trademark, SIGMA). CD4-Positive Isolation Kit (DYNAL, Oslo, Norway) was used for isolation of CD4+ T cells and Dynabeads M-450 CD8 (Registered trademark, DYNAL, Oslo, Norway) for isolation of CD8+ T cells, respectively, according to the manufacturer's instructions.
To activate T cells, CD4+ or CD8+ cells at 1×10^6 cells/mL in an RPMI-1640 medium containing 10% FCS were incubated on the plate coated with anti-CD3 Ab for 20 to 24 hr at 37° C. in a 5% CO2 incubator, and incubated with rGal-9 [(His)6-Gal-9(S)] at 37° C. in a 5% CO2 incubator. Then apoptosis assay was conducted as described in (c). That is, cells were incubated with 50 μg/mL PI (SIGMA) at 37° C. for 10 min in the dark. Stained cells were analyzed by flow cytometry (Sandstrom, K. et al., J Immunol Methods, 240: 55 (2000) and Zhang L. et al., Cancer Lett, 142: 129 (1999)).
Apoptosis assay was also conducted for non-activated (resting) T cells as described above after incubating them with rGal-9 [(His)6-Gal-9(S)] at 37° C. in a 5% Co2 incubator.
For comparison, galectin-1 and -3 treated cells were analyzed.
Next, apoptosis induction by Gal-9 in human peripheral blood T cells was examined. T cells were separated into CD4+ and CD8+ T cells followed by incubation in the presence or absence of anti-CD3 Ab. Resting T cells and anti-CD3 Ab-activated T cells were incubated with 1 μM rGal-9.

MOLT-4 cells [1] = experiment: Apoptosis analysis with Annexin V-PI in MOLT-4 cells; format: cell-based, human; details: 1 μM Gal-9; FIG. 1B; control 13.2%
Description: MEBCYTO (registered trademark) Apoptosis kit (MBL, Nagoya, Japan) was used for apoptosis analysis with Annexin V-PI. Experiments were carried out according to the manufacturer's instruction as follows. Briefly, cells that underwent apoptosis induction (2×10^5 cells/sample) were washed with PBS, and resuspended in the binding buffer. After adding Annexin V-FITC and 5 μL of PI (final concentration 5 μg/mL) in the kit to the cell suspension, cells were incubated for 15 min at room temperature in the dark. Analysis was conducted using flow cytometry (EPICS XL-MCL, CouHer, Miami, Fla., US).

MOLT-4 cells [2] = experiment: Apoptosis analysis by PI method in MOLT-4 cells; format: cell-based, human
Description: as §1
Cells that underwent apoptosis induction were centrifuged at 4° C. for 5 min at 1,000 rpm, and the cell pellet was resuspended in PBS (300 μL), and adjusted to a final concentration of 70% by gradually adding 100% cold ethanol (700 μL) to the suspended cells with vortexing. Cells were fixed by incubation at 4° C. for 30 min, and centrifuged at 4° C. for 5 min at 1,000 rpm after adding PBS (1 mL), and the cell pellet was resuspended in PBS (440 μL). Cells were incubated with ribonuclease A (10 μL; the final concentration 50 μg/mL, Sigma, St. Louis, Mo., US) at 37° C. for 30 min, and with 2.5 mg/mL propidium iodide (4 μL; the final concentration of PI 20 μg/mL, Sigma) at 4° C. for 10 min in the dark. Stained cells were analyzed by flow cytometry (Sandstrom, K. et al., J Immunol Methods, 240: 55 (2000) and Zhang L. et al., Cancer Lett, 142: 129 (1999)) after removing aggregated cells through a nylon mesh and increasing the cell volume with PBS.
(3) Cultured Cell Lines Were Incubated With rGal-9 for the Appropriate Length of Time, 24 hr for Instance. Apoptosis Analysis was Conducted by the Above-Described PI Method (1).
(§4) Apoptotic activity was measured by the PI method. When cells are incubated with galectin-9, washed, then subjected to alcohol-fixation, and fragmented DNAs flow out of the cell. Subsequently, incubation with PI leads to a reduction in the fluorescence intensity of apoptotic cells. Apoptosis was examined by the percentage of the cells wherein their fluorescence intensity was reduced. […] This induction was at the same level as H2O2 (hydrogen peroxide solution) that was used as a positive control. In addition, the same results were obtained by another method for examining apoptosis, TUNEL assay.

KATO-III = experiment: Apoptosis analysis by PI method in KATO-III cells; format: cell-based; details: incubation with galectin-9 at least 48 hr or more
Description: as §4

[3] = recombinant galectin-9 added exogenously

Substance: Galectin-9: Recombinant human galectin-9 expressed in E. coli and purified on lactose-agarose
- aggregation (MM-RU; 2 hr after addition): aggregation was observed
- aggregation (MM-RU; 12 hr after addition): more intensive aggregation
- concentration at which aggregation of MM-RU was induced (MM-RU; [3]): ≥ 0.1 µM
- concentration at which the efficacy was significant (MM-RU; [3]): 0.3 to 1.0 µM
- apoptosis induction, Gal9 (+) (Jurkat; Jurkat, incubation with galectin-9 at least 48 hr or more): 66.6
- apoptosis induction (Jurkat; rGal-9 1 μM, 24 hr, FIG. 3): induced
- apoptosis induction, Gal9 (+) (THP-1; THP-1, incubation with galectin-9 at least 48 hr or more): 61.2
- apoptosis induction (THP-1; rGal-9 1 μM, 24 hr, FIG. 3): induced
- apoptosis induction, CD4 (CD4+ T cells; CD3 (+) cells activated on anti-CD3 Ab-coated plates): 41.7
- apoptosis induction, CD4 (CD4+ T cells; CD3 (−) untreated resting cells): 10.8
- cells that underwent apoptosis, detectable by Annexin V staining (MOLT-4 cells [1]): 69.1%
- apoptosis induction, Gal9 (+) (MOLT-4 cells [2]; MOLT4, incubation with galectin-9 at least 48 hr or more): 34.5
- apoptosis induction, time and dose dependence (MOLT-4 cells [2]; PI method): time-dependent and dose-dependent
- apoptosis induction (MOLT-4 cells [2]; rGal-9 1 μM, 24 hr, FIG. 3): induced
- PI-stained cells, which underwent apoptosis (MOLT-4 cells [2]; rGal-9 1 μM, PI method, FIG. 1A, PBS control 14.8%): 34.5%
- apoptosis induction, Gal9 (+) (KATO-III): 30.5
